Target: Cytochrome P450 3A4 (Homo sapiens, UniProt P08684)
Experiment: log (1/Km) value for human liver microsome cytochrome P450 3A4
Conditions: microsomes

Cytochrome P450 3A4, sequence (P08684 whole entry): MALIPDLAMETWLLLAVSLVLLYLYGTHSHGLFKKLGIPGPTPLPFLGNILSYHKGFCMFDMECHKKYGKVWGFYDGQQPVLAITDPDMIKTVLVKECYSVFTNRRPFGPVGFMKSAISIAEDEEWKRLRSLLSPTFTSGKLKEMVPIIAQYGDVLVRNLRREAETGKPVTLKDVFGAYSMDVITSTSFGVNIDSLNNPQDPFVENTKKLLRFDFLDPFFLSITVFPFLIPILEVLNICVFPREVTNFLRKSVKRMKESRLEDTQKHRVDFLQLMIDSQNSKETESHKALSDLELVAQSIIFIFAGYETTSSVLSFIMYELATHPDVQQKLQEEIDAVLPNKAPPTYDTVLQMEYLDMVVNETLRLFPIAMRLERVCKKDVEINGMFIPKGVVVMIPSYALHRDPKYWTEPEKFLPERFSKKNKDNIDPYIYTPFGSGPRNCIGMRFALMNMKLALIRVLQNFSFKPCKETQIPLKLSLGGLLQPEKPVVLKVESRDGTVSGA

Structure (SMILES) | Log 1/Km
CS(=O)(=O)O.C[C@@H]1C[C@H]2[C@@H]3CCC4=CC(=O)C=C[C@]4(C)C3=CC[C@]2(C)[C@H]1C(=O)CN1CCN(c2cc(N3CCCC3)nc(N3CCCC3)n2)CC1 [TIRILAZAD MESYLATE] | -0.2601
CC[C@]1(O)C[C@@H]2CN(CCc3c([nH]c4ccccc34)[C@@](C(=O)OC)(c3cc4c(cc3OC)N(C)[C@H]3[C@@](O)(C(N)=O)[C@H](O)[C@]5(CC)C=CCN6CC[C@]43[C@@H]65)C2)C1 [VINDESINE] | -1.3927
CN(C)CCCC1(c2ccc(F)cc2)OCc2cc(C#N)ccc21 (stereo not drawn) [CITALOPRAM] | -2.4548
CC[C@H]1OC(=O)[C@H](C)[C@@H](O[C@H]2C[C@@](C)(OC)[C@@H](O)[C@H](C)O2)[C@H](C)[C@@H](O[C@@H]2O[C@H](C)C[C@H](N(C)C)[C@H]2O)[C@](C)(O)C[C@@H](C)C(=O)[C@H](C)[C@@H](O)[C@]1(C)O [ERYTHROMYCIN] | -1.7853
CC(=O)O[C@H]1C(=O)[C@@]2(C)[C@H]([C@H](OC(=O)c3ccccc3)[C@]3(O)C[C@H](OC(=O)[C@H](O)[C@@H](NC(=O)c4ccccc4)c4ccccc4)C(C)=C1C3(C)C)[C@]1(OC(C)=O)CO[C@@H]1C[C@@H]2O [PACLITAXEL] | -1.2553
CO[C@H]1C[C@@H]2CC[C@@H](C)[C@@](O)(O2)C(=O)C(=O)N2CCCC[C@H]2C(=O)O[C@H]([C@H](C)C[C@@H]2CC[C@@H](O)[C@H](OC)C2)CC(=O)[C@H](C)/C=C(\C)[C@@H](O)[C@@H](OC)C(=O)[C@H](C)C[C@H](C)/C=C/C=C/C=C/1C [SIROLIMUS] | -0.9069
CCc1c2c(nc3ccc(OC(=O)N4CCC(N5CCCCC5)CC4)cc13)-c1cc3c(c(=O)n1C2)COC(=O)[C@]3(O)CC [IRINOTECAN] | -1.2648
C[C@H](CCC(=O)NCCS(=O)(=O)O)[C@H]1CC[C@H]2[C@@H]3[C@H](O)C[C@@H]4C[C@H](O)CC[C@]4(C)[C@H]3CC[C@]12C [TAUROCHENODEOXYCHOLATE] | -1.9542
O=c1[nH]c2ccccc2n1C1CCN(CCCC(c2ccc(F)cc2)c2ccc(F)cc2)CC1 [PIMOZIDE] | -0.7559
C/C=C1/C[C@@H](C)[C@@](C)(O)C(=O)OCC2=CCN3CC[C@@H](OC1=O)[C@@H]23 [SENECIONINE] | -2.4772
CCCCN1CCCC[C@@H]1C(=O)Nc1c(C)cccc1C [BUPIVACAINE] | -2.0967
C/C=C/c1ccc(OC)c(CN[C@H]2C3CCN(CC3)[C@H]2C(c2ccccc2)c2ccccc2)c1 | -1.3424
CC[C@H]1OC(=O)[C@H](C)[C@@H](O[C@H]2C[C@@](C)(OC)[C@@H](O)[C@H](C)O2)[C@H](C)[C@@H](O[C@@H]2O[C@H](C)C[C@H](N(C)C)[C@H]2O)[C@](C)(OC)C[C@@H](C)C(=O)[C@H](C)[C@@H](O)[C@]1(C)O [CLARITHROMYCIN] | -1.6875
ClC(Cl)Br [BROMODICHLOROMETHANE] | -1.4472
COc1ccc2[nH]c([S+]([O-])Cc3ncc(C)c(OC)c3C)nc2c1 (stereo not drawn) [OMEPRAZOLE] | -1.6902
C=CC[C@@H]1/C=C(\C)C[C@H](C)C[C@H](OC)[C@H]2O[C@@](O)(C(=O)C(=O)N3CCCC[C@H]3C(=O)O[C@H](/C(C)=C/[C@@H]3CC[C@@H](O)[C@H](OC)C3)[C@H](C)[C@@H](O)CC1=O)[C@H](C)C[C@@H]2OC [TACROLIMUS ANHYDROUS] | -0.792
CC(=O)O[C@@]12CO[C@@H]1C[C@H](O)[C@@]1(C)C(=O)[C@H](O)C3=C(C)[C@@H](OC(=O)[C@H](O)[C@@H](NC(=O)OC(C)(C)C)c4ccccc4)C[C@@](O)([C@@H](OC(=O)c4ccccc4)[C@H]21)C3(C)C.O.O.O [DOCETAXEL] | -0.0414
Cc1nnc2n1-c1ccc(Cl)cc1C(c1ccccc1)=NC2 [ALPRAZOLAM] | -2.4232
Nc1ccc(S(=O)(=O)c2ccc(N)cc2)cc1 [DAPSONE] | -2.2304

Structure (SMILES) | Log 1/Km
NC(=O)N1c2ccccc2C=Cc2ccccc21 [CARBAMAZEPINE] | -2.6532
CO[C@H]1/C=C/O[C@@]2(C)Oc3c(C)c(O)c4c(c3C2=O)C2=NC3(CCN(CC(C)C)CC3)NC2=C(NC(=O)/C(C)=C\C=C\[C@H](C)[C@H](O)[C@@H](C)[C@@H](O)[C@@H](C)[C@H](OC(C)=O)[C@@H]1C)C4=O [RIFABUTIN] | -1.0373
CN(C)CCC=C1c2ccccc2CCc2ccccc21 [AMITRIPTYLINE] | -1.8407
CN1[C@@H]2CC[C@H]1C[C@@H](NC(=O)c1cc(Cl)cc3c1OC(C)(C)C3)C2 [ZATOSETRON] | -2.3901
Cc1c(C)c2c(c(C)c1O)CCC(C)(COc1ccc(CC3SC(=O)NC3=O)cc1)O2 (stereo not drawn) [TROGLITAZONE] | -2.7918
CN1C(=O)CN=C(c2ccccc2F)c2cc([N+](=O)[O-])ccc21 [FLUNITRAZEPAM] | -2.1892
O=C(N[C@H](/C=C/S(=O)(=O)c1ccccc1)CCc1ccccc1)[C@H](Cc1ccccc1)NC(=O)N1CCOCC1 | -1.4843
CN(C)c1ccc([C@H]2C[C@]3(C)[C@@H](CC[C@]3(O)CCCO)C3CCC4=CC(=O)CCC4=C32)cc1 (single isomer, unassigned) [ONAPRISTONE] | -1.2923
CC(C)(C)c1cc(CC2SCNC2=O)cc(C(C)(C)C)c1O (stereo not drawn) [TAZOFELONE] | -0.996
C[C@]12CCC(=O)C=C1CC[C@@H]1[C@@H]2[C@@H](O)C[C@@]2(C)[C@H]1CC[C@]2(O)C(=O)CO [HYDROCORTISONE] | -1.1818
CN(C)Cc1nnc2n1-c1ccc(Cl)cc1C(c1ccccc1)=NC2 [ADINAZOLAM] | -1.9628
CC/C(=C(\c1ccccc1)c1ccc(OCCN(C)C)cc1)c1ccccc1 [TAMOXIFEN] | -1.9912
CC[C@]1(O)C[C@@H]2CN(CCc3c([nH]c4ccccc34)[C@@](C(=O)OC)(c3cc4c(cc3OC)N(C)[C@H]3[C@@](O)(C(=O)OC)[C@H](OC(C)=O)[C@]5(CC)C=CCN6CC[C@]43[C@@H]65)C2)C1 [VINBLASTINE] | -0.834
COc1ccc(C(CN(C)C)C2(O)CCCCC2)cc1 (stereo not drawn) [VENLAFAXINE] | 0.0899
CC(c1cc2ccccc2s1)N(O)C(N)=O (stereo not drawn) [ZILEUTON] | -2.1938
CCOc1ccc2ccc(=O)oc2c1 [ETHOXYCOUMARIN] | -3.4771
O=[N+]([O-])c1ccc2ccc3cccc4ccc1c2c34 [1-NITROPYRENE] | -0.5185
CN(C)c1ccc([C@H]2C[C@@]3(C)[C@@H](CC[C@@]3(O)/C=C\CO)[C@@H]3CCC4=CC(=O)CCC4=C32)cc1 [LILOPRISTONE] | -0.9445
CC(C)(C)NCC(O)COc1cccc2c1CCC(=O)N2 (stereo not drawn) [CARTEOLOL] | -1.8432

Reference: ChEMBL document CHEMBL1142817, “Modeling K(m) values using electrotopological state: substrates for cytochrome P450 3A4-mediated metabolism” (Bioorg Med Chem Lett, 2005)
